Reference: patent US20250034173A1, “PYRIDO[4,3-D]PYRIMIDINE COMPOUNDS” (PFIZER INC., priority 2023, published 2025)

Columns and labels:
HRAS Wild Type = HRAS Wild Type (Homo sapiens (Human), UniProt P01112); test: SPR binding affinity and kinetics, GTPγS-loaded HRAS Wild Type; settings: GTPγS loaded protein, geomean
Text: (§1) No additional regeneration was used.
(§2) Compound dissociation was monitored for at least 3600 seconds. […] No additional regeneration was used.
(§3) The adequateness of the fit was judged by c2 values and the randomness of residue distribution.

KRAS G12V = KRAS G12V (Homo sapiens (Human), UniProt P01116, G12V); test: SPR binding affinity and kinetics, GTPγS-loaded KRAS G12V; settings: GTPγS loaded protein, geomean
Text: as §1, §2, §3

KRAS G12C = KRAS G12C (Homo sapiens (Human), UniProt P01116, G12C); test: SPR binding affinity and kinetics, GTPγS-loaded KRAS G12C; settings: GTPγS loaded protein, geomean
Text: as §1, §2, §3

KRAS Wild Type = KRAS Wild Type (Homo sapiens (Human), UniProt P01116); test: SPR binding affinity and kinetics, GTPγS-loaded KRAS Wild Type; settings: GTPγS loaded protein, geomean
Text: as §1, §2, §3

NRAS Wild Type = NRAS Wild Type (Homo sapiens (Human), UniProt P01111); test: SPR binding affinity and kinetics, GTPγS-loaded NRAS Wild Type; settings: GTPγS loaded protein, geomean
Text: as §1, §2, §3

KRAS G12D = KRAS G12D (Homo sapiens (Human), UniProt P01116, G12D); test: SPR binding affinity and kinetics, GTPγS-loaded KRAS G12D; settings: GTPγS loaded protein, geomean
Text: as §1, §2, §3

[1] = test system: PANC08.13 (pancreatic cancer cell line); test: KRAS Cell Titer Glo (CTG) cell proliferation assay, PANC08.13; type: cell-based; settings: PANC08.13 cells, 7-day CTG, geomean IC50
Text: (§4) The CellTiter-Glo® (CTG) Luminescent Cell Viability Assay is a homogeneous method of determining the number of viable cells in culture based on quantitation of the ATP present, an indicator of metabolically active cells. The CTG is designed for use with multi-well formats, making it ideal for automated high-throughput screening (HTS), cell proliferation and cytotoxicity assays. The homogeneous assay procedure involves adding the single reagent (CellTiter-Glo® Reagent) directly to cells cultured in serum-supplemented medium. Cell washing, removal of medium and multiple pipetting steps are not required. The system detects as few as 15 cells per well in a 384-well format in 10 minutes after adding reagent and mixing.
(§5) Cells are grown in humidified 5% CO2 incubator at 37° C. using the culture conditions outlined below. All cell culture media reagents were purchased from Gibco. Cell lines purchased from ATCC: H358 (non-small cell lung cancer cell line), SW620 (colorectal cancer cell line), PANC08.13 (RPM11640+10% FBS+10 units/mL Insulin, pancreatic cancer cell line). Test and control compounds are dispensed as nanoliter drops according to desired final concentrations in 0.1% DMSO using Echo Acoustic Dispenser onto 384 assay plates (Corning, Cat #3764) prior to cell seeding. Cells were seeded in 40 μL volume per well at the following cell densities (cells per well): H358 (300), SW620 (750), PANC 08.13 (600). Cells are incubated in the presence of compound for 7-days. Viability is determined on Day 7 using CellTiter-Glo® (CTG) Luminescent Cell Viability Assay (Promega). CTG is added to a […] per well and incubated at room temperature for 15 minutes before luminescence is captured using an EnVision Reader with LUM384 US protocol. Data is analyzed using Activity Base to determine compound response and will be represented either as a percent effect (PCTEFF) or percent control (PCTOCTL) as described: Zero percent effect control (ZPE) (Negative control)—100% DMSO. Hundred percent effect (HPE) (Positive control)—1 uM Trametinib (GSK1120212, MEK inhibitor) (4 nl of 10 mM and 36 nl of DMSO per well). The following equations/nomenclature are used (% Effect; PCTEFF) and (% of Control; PCTOCTL): PCTEFF: 100*(Raw_Data_Value−HPE/ZPE−HPE), PCTOCTL: 100*Raw_Data_Value/User_Defined_Array), where the User_Defined_Array is either summarized HPE or ZPE.
(§6) Cells with “nd” indicate compound not tested in that particular assay at time of writing. It is to be understood that the geomean IC50 data may change slightly over time with increasing repeat data (ie: increasing n #).

[2] = test system: H358 (non-small cell lung cancer cell line); test: KRAS Cell Titer Glo (CTG) cell proliferation assay, H358; type: cell-based; settings: H358 cells, 7-day CTG, geomean IC50
Text: as §4, §5, §6

[3] = test system: SW620 (colorectal cancer cell line); test: KRAS Cell Titer Glo (CTG) cell proliferation assay, SW620; type: cell-based; settings: SW620 cells, 7-day CTG, geomean IC50
Text: as §4, §5, §6

[4] = Homo sapiens, PANC-08-13, 168 h

Compound	Kd (HRAS Wild Type) [nM]	Kd (KRAS G12V) [nM]	Kd (KRAS G12C) [nM]	Kd (KRAS Wild Type) [nM]	Kd (NRAS Wild Type) [nM]	Kd (KRAS G12D) [nM]	IC50 [1, 4] [nM]	IC50 ([2]; Homo sapiens, NCI-H358, 168 h) [nM]	IC50 ([3]; Homo sapiens, SW-620, 168 h) [nM]	IC50 [1] [nM]	IC50 [2] [nM]	IC50 [3] [nM]
(1Z)-1-[(7aS)-7a-({[(8aS)-5-(6-chloro-5-cyclopropyl-1H-indazol-4-yl)-4-fluoro-8a,9,12,13-tetrahydro-8H,11H-7,10-dioxa-1,3,6,13a-tetraazanaphtho[1,8-ab]heptalen-2-yl]oxy}methyl)tetrahydro-1H-pyrrolizin-2(3H)-ylidene]propan-2-ol [Example 60]	> 10000	18	26	25	> 10000	11	–	–	–	–	–	–
C[C@@H]1CCCc2cc3[nH]ncc3c(-c3nc4c5c(nc(OC[C@@]67CCCN6C/C(=C\F)C7)nc5c3F)N3CCCOC[C@H]3CO4)c21 [Example 54, (8aS)-4-fluoro-2-{[(2Z,7aS)-2-(fluoromethylidene)tetrahydro-1H-pyrrolizin-7a(5H)-yl]methoxy}-5-[(5R)-5-methyl-5,6,7,8-tetrahydro-1H-benzo[f]indazol-4-yl]-8a,9,12,13-tetrahydro-8H,11H-7,10-dioxa-1,3,6,13a-tetraazanaphtho[1,8-ab]heptalene]	> 10000	1	< 1	1	> 10000	1	–	–	–	–	–	–
COC/C=C1\CN2CCC[C@@]2(COc2nc3c4c(nc(-c5c6c(cc7[nH]ncc57)CCC[C@H]6OC)c(F)c4n2)OC[C@@H]2COCCCN32)C1 (single isomer, unassigned) [Example 58, (8aS)-4-fluoro-2-{[(2Z,7aS)-2-(2-methoxyethylidene)tetrahydro-1H-pyrrolizin-7a(5H)-yl]methoxy}-5-[(5R*)-5-methoxy-5,6,7,8-tetrahydro-1H-benzo[f]indazol-4-yl]-8a,9,12,13-tetrahydro-8H,11H-7,10-dioxa-1,3,6,13a-tetraazanaphtho[1,8-ab]heptalene]	> 10000	81	42	61	> 10000	74	–	–	–	–	–	–
C=C1CN2CCC[C@@]2(COc2nc3c4c(nc(-c5c6c(cc7[nH]ncc57)CCC[C@H]6OC)c(F)c4n2)OC[C@@H]2COCCCN32)C1 (single isomer, unassigned) [Example 56, (8aS)-4-fluoro-5-[(5R*)-5-methoxy-5,6,7,8-tetrahydro-1H-benzo[f]indazol-4-yl]-2-{[(7aS)-2-methylidenetetrahydro-1H-pyrrolizin-7a(5H)-yl]methoxy}-8a,9,12,13-tetrahydro-8H,11H-7,10-dioxa-1,3,6,13a-tetraazanaphtho[1,8-ab]heptalene]	–	23	10	23	–	34	135	172	63	–	–	–
C=C1CN2C[C@@H](O)C[C@@]2(COc2nc3c4c(nc(-c5c(C6CC6)c(Cl)cc6[nH]ncc56)c(F)c4n2)OC[C@@H]2COCCCN32)C1 [Example 17, (2S,7aR)-7a-({[(8aS)-5-(6-chloro-5-cyclopropyl-1H-indazol-4-yl)-4-fluoro-8a,9,12,13-tetrahydro-8H,11H-7,10-dioxa-1,3,6,13a-tetraazanaphtho[1,8-ab]heptalen-2-yl]oxy}methyl)-6-methylidenehexahydro-1H-pyrrolizin-2-ol]	–	4	5	5	–	3	31	80	190	–	–	–
(8aS)-5-(5-chloro-6-fluoro-1H-indazol-4-yl)-4-fluoro-2-{[(7aS)-2-methylidenetetrahydro-1H-pyrrolizin-7a(5H)-yl]methoxy}-8a,9,12,13-tetrahydro-8H,11H-7,10-dioxa-1,3,6,13a-tetraazanaphtho[1,8-ab]heptalene [Example 9]	–	303	430	389	–	270	–	–	–	140	758	914
C=C1CN2CCC[C@@]2(COc2nc3c4c(nc(-c5c6c(cc7[nH]nc(Cl)c57)CCC[C@H]6C)c(F)c4n2)OC[C@@H]2COCCCN32)C1 [Example 62, (8aS)-5-[(5R)-3-chloro-5-methyl-5,6,7,8-tetrahydro-1H-benzo[f]indazol-4-yl]-4-fluoro-2-{[(7aS)-2-methylidenetetrahydro-1H-pyrrolizin-7a(5H)-yl]methoxy}-8a,9,12,13-tetrahydro-8H,11H-7,10-dioxa-1,3,6,13a-tetraazanaphtho[1,8-ab]heptalene]	> 10000	< 1	< 1	< 1	> 10000	< 1	–	–	–	–	–	–
(8aS)-5-(6-chloro-5-cyclopropyl-1H-indazol-4-yl)-4-fluoro-2-{[(1S,7aS*)-1-methoxy-6-methylidenetetrahydro-1H-pyrrolizin-7a(5H)-yl]methoxy}-8a,9,12,13-tetrahydro-8H,11H-7,10-dioxa-1,3,6,13a-tetraazanaphtho[1,8-ab]heptalene [Example 61]	–	5	4	5	–	3	–	–	–	11	21	38
C/C=C1/CN2CCC[C@@]2(COc2nc3c4c(nc(-c5c(C6CC6)c(Cl)cc6[nH]ncc56)c(F)c4n2)OC[C@@H]2COCCCN32)C1 [Example 27, (8aS)-5-(6-chloro-5-cyclopropyl-1H-indazol-4-yl)-2-{[(2E,7aS)-2-ethylidenetetrahydro-1H-pyrrolizin-7a(5H)-yl]methoxy}-4-fluoro-8a,9,12,13-tetrahydro-8H,11H-7,10-dioxa-1,3,6,13a-tetraazanaphtho[1,8-ab]heptalene]	–	6	3	9	–	4	9	72	74	–	–	–
C=C1CN2CCC[C@@]2(COc2nc3c4c(nc(-c5c([C@@H]6C[C@H]6C)c(Cl)cc6[nH]ncc56)c(F)c4n2)OC[C@@H]2COCCCN32)C1 (single isomer, unassigned) [Example 51, (8aS)-5-{6-chloro-5-[(1R*,2R*)-2-methylcyclopropyl]-1H-indazol-4-yl}-4-fluoro-2-{[(7aS)-2-methylidenetetrahydro-1H-pyrrolizin-7a(5H)-yl]methoxy}-8a,9,12,13-tetrahydro-8H,11H-7,10-dioxa-1,3,6,13a-tetraazanaphtho[1,8-ab]heptalene]	–	7	8	12	–	6	10	27	40	–	–	–
C=C1CN2CC[C@@H](O)[C@@]2(COc2nc3c4c(nc(-c5c(C6CC6)c(Cl)cc6[nH]ncc56)c(F)c4n2)OC[C@@H]2COCCCN32)C1 (relative stereo) [Example 45, (1R,7aS*)-7a-({[(8aS)-5-(6-chloro-5-cyclopropyl-1H-indazol-4-yl)-4-fluoro-8a,9,12,13-tetrahydro-8H,11H-7,10-dioxa-1,3,6,13a-tetraazanaphtho[1,8-ab]heptalen-2-yl]oxy}methyl)-6-methylidenehexahydro-1H-pyrrolizin-1-ol]	–	2	3	3	–	1	20	19	32	–	–	–
